Source: publication PMC8657898, “Cytokinin Perception in Ancient Plants beyond Angiospermae” (International Journal of Molecular Sciences, 2021)
Where two headings read alike, the source gives them in different places.

Assays:
[1] = molecular target: T1, PpCHK1 (Physcomitrium patens, UniProt A0A068JFF6); assay: competition of unlabeled CKs with 3H-iP, tobacco leaf microsomes expressing the receptor; format: binding
[2] = molecular target: PaCHK2; assay: as above; format: binding, Picea abies
[3] = molecular target: T2, PpCHK2 (Physcomitrium patens, UniProt A0A068JG96); assay: as above; format: binding
[4] = test system: PaCHK1; assay: as above; format: binding, Picea abies
[5] = molecular target: T3, SmCHK4a (Selaginella moellendorffii, UniProt D8R9F4); assay: as above; format: binding
[6] = molecular target: T4, SmCHK6 (Selaginella moellendorffii, UniProt D8SUD5); assay: as above; format: binding
[7] = test system: AHK3; conditions: AHK3 from A. thaliana; cited from earlier work
[8] = molecular target: T2, PpCHK2; assay: direct 3H-iP binding (saturation, pH dependence), tobacco leaf microsomes; conditions: saturation curve of 3H-iP specific binding
[9] = molecular target: T1, PpCHK1; assay: as above; conditions: saturation curve of 3H-iP specific binding
[10] = molecular target: T3, SmCHK4a; assay: as above; conditions: saturation curve of 3H-iP specific binding
[11] = molecular target: PaCHK1; assay: as above; set-up: species or system Picea abies; conditions: saturation curve of 3H-iP specific binding
[12] = molecular target: PaCHK2; assay: as above; set-up: species or system Picea abies; conditions: saturation curve of 3H-iP specific binding
[13] = test system: PpCHK4; assay: specific binding of 3H-iP, tobacco leaf microsomes; set-up: species or system Physcomitrium patens; conditions: PpCHK4 sensory module; expression confirmed by immunoblotting
Procedure: (§1) We experimentally analyzed the ligand-binding properties of CHK receptors from P. patens, S. moellendorffii, and P. abies using a radiolabeled ligand method and microsomes from tobacco leaves where these receptors were transiently expressed. Tritiated isopentenyladenine served as the labeled CK. PpCHK1 and 2 proteins from P. patens were tested in a full-length version, and otherwise sensory modules (SMs) flanked by TM helices were used. PpCHK1-3 represented canonical CHK receptor group, while PpCHK4 was a representative of the related sister group. […]
(§2) Of the eight cloned receptors, we detected no CK binding for PpCHK3 and PpCHK4, although expression of these proteins was confirmed by immunoblotting against the fused GFP domain (Figure 2). […]
(§3) pK7WGF2 and pB7FWG2 constructs were transformed to Agrobacterium tumefaciens strain GV3101 and transiently expressed in Nicotiana benthamiana leaves. […] Transient expression was assessed by means of immunoblotting of microsomal membranes with antibodies against GFP (Agrisera, AS15 2987) diluted 1:5000 as described in [15]. Background binding of ^3H-iP by endogenous CK receptors of N. benthamiana was assessed in control probes using microsomes from untreated leaves (Figure 2). […]

[14] = test system: PpCHK3; assay: specific binding of 3H-iP, tobacco leaf microsomes; set-up: species or system Physcomitrium patens; conditions: PpCHK3 sensory module; expression confirmed by immunoblotting
Procedure: as §1, §2, §3

[15] = molecular target: T4, SmCHK6; assay: direct 3H-iP binding (saturation, pH dependence), tobacco leaf microsomes; conditions: saturation curve of 3H-iP specific binding
[16] = test system: PpCHK3; conditions: previous data; cited from earlier work
[17] = PpCHK1, competition with 3H-iP, Cheng-Prusoff calculation method, ± SE, read-out: KD of CK-Receptor Complexes
[18] = PpCHK1, competition with 3H-iP, alternative calculation method (Appendix A), ± SE, read-out: KD of CK-receptor complexes
[19] = PaCHK2, competition with 3H-iP, Cheng-Prusoff calculation method, ± SE, read-out: KD of CK-Receptor Complexes
[20] = PaCHK2, competition with 3H-iP, alternative calculation method (Appendix A), ± SE, read-out: KD of CK-receptor complexes
[21] = PpCHK2, competition with 3H-iP, Cheng-Prusoff calculation method, ± SE, read-out: KD of CK-Receptor Complexes
[22] = PpCHK2, competition with 3H-iP, alternative calculation method (Appendix A), ± SE, read-out: KD of CK-receptor complexes
[23] = KD for PaCHK1 divided by KD for PaCHK2, Table 1 values
[24] = PaCHK1, competition with 3H-iP, Cheng-Prusoff calculation method, ± SE, read-out: KD of CK-Receptor Complexes
[25] = PaCHK1, competition with 3H-iP, alternative calculation method (Appendix A), ± SE, read-out: KD of CK-receptor complexes
[26] = read-out: KD of CK-Receptor Complexes
[27] = read-out: KD of CK-receptor complexes
[28] = SmCHK4a, competition with 3H-iP, Cheng-Prusoff calculation method, ± SE, read-out: KD of CK-Receptor Complexes
[29] = SmCHK4a, competition with 3H-iP, alternative calculation method (Appendix A), ± SE, read-out: KD of CK-receptor complexes
[30] = SmCHK6, competition with 3H-iP, Cheng-Prusoff calculation method, ± SE, read-out: KD of CK-Receptor Complexes
[31] = SmCHK6, competition with 3H-iP, alternative calculation method (Appendix A), ± SE, read-out: KD of CK-receptor complexes

T3 sequence (D8R9F4 entry or part of it): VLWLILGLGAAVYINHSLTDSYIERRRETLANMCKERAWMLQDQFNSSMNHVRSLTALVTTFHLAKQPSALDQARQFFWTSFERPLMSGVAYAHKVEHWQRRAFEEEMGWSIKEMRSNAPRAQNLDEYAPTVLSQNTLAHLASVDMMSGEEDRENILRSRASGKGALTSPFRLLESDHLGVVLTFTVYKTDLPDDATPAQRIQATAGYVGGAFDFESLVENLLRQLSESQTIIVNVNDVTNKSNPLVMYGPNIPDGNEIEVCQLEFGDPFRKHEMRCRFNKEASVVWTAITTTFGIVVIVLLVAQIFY
T1 sequence (A0A068JFF6 entry or part of it): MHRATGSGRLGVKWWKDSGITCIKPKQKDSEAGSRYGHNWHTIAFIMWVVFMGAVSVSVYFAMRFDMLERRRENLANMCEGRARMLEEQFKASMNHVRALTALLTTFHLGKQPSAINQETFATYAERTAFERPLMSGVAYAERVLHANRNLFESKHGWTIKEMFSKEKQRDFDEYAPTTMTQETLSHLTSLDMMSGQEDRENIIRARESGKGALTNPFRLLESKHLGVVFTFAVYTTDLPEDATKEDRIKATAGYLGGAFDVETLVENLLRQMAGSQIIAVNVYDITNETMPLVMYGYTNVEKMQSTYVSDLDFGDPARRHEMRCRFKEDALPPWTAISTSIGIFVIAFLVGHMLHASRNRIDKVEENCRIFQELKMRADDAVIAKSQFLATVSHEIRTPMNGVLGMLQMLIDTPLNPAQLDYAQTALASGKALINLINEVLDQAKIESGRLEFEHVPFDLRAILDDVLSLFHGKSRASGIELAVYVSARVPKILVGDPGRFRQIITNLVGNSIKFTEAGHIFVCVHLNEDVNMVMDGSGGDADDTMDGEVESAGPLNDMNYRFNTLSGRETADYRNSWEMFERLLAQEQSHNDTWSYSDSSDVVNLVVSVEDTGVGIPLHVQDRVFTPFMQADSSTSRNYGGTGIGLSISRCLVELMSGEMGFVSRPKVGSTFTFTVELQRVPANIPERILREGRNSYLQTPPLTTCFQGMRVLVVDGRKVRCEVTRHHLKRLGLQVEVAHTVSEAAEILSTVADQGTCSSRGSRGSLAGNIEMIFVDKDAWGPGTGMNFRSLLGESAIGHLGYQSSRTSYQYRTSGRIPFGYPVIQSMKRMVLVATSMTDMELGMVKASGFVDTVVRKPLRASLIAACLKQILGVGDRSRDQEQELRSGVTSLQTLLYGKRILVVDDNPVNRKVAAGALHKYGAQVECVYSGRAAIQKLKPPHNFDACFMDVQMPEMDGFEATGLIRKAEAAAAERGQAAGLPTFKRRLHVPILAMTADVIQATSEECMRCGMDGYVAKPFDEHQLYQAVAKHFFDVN
T4 sequence (D8SUD5 entry or part of it): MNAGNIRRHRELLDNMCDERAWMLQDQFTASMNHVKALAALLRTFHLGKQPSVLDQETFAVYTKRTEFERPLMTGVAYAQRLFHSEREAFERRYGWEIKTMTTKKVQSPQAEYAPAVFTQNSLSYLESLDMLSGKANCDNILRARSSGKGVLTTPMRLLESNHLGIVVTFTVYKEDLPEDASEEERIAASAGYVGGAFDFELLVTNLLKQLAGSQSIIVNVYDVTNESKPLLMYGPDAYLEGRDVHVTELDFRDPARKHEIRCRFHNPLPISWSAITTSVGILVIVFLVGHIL
T2 sequence (A0A068JG96 entry or part of it): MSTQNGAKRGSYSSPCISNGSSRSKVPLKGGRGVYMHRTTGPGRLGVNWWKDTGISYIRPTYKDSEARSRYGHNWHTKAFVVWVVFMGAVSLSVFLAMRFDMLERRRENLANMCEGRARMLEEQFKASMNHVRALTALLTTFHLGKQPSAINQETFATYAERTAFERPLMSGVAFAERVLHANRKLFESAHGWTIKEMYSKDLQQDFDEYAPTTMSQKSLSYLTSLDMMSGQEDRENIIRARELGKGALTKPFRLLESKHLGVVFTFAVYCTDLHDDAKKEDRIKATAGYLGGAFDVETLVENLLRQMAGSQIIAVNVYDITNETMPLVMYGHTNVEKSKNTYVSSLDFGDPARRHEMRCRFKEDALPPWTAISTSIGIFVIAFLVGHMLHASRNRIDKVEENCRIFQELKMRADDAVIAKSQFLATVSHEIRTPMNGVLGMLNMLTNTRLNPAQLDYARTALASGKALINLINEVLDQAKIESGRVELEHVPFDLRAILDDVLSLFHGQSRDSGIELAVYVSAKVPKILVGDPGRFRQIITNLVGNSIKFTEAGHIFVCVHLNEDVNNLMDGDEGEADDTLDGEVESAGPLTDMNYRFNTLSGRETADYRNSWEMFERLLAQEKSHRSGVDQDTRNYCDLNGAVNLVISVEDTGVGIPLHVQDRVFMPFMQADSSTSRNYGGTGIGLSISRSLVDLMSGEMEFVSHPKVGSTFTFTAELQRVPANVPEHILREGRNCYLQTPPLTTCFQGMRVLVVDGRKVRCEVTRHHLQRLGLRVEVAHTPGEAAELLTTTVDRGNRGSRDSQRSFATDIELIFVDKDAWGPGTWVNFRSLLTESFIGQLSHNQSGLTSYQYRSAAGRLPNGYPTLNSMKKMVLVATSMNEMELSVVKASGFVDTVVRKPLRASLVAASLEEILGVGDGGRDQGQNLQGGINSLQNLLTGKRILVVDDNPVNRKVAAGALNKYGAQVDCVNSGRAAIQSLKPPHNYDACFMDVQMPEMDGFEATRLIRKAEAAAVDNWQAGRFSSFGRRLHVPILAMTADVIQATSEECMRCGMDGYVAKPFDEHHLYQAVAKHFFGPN

SMILES | Kd [1, 17] | Kd [1, 18] | Kd [2, 19] | Kd [2, 20] | Kd [3, 21] | Kd [3, 22] | PaCHK1/CHK2 affinity ratio (KD1/KD2) [4, 23] | Kd [4, 24] | Kd [4, 25] | Kd [2, 26] | Kd [2, 27] | PaCHK1/CHK2 affinity ratio (KD1/KD2) [4] | Kd [4, 26] | Kd [4, 27] | Kd [5, 28] | Kd [5, 29] | Kd [6, 30] | Kd [6, 31] | also measured
CC(CO)CCNc1ncnc2nc[nH]c12 (stereo not drawn) [DZ, dihydrozeatin] | 507 ± 42 nM | 676 ± 14.4 nM | 22.4 ± 2.9 nM | 29.1 ± 5.4 nM | 323 ± 97 nM | 501 ± 74.7 nM | 16.8 | 377 ± 27 nM | 244 ± 25.9 nM |  |  |  |  |  |  |  |  |  | 
C/C(=C/CNc1ncnc2nc[nH]c12)CO [cZ, cis-zeatin] |  |  |  |  |  |  |  |  |  | 17.9 ± 2.9 nM | 22.7 ± 3.2 nM | 23.4 | 419 ± 56 nM | 286 ± 69.4 nM |  |  |  |  | PpCHK1/CHK2 affinity ratio (KD1/KD2) [1]: 3.01; cZ/tZ KD ratio [1]: 2.79; Kd [1, 26]: 103 ± 15 nM; Kd [1, 27]: 94.4 ± 26.3 nM; cZ/tZ KD ratio [5]: 2.58; Kd [5, 26]: 20.6 ± 2.6 nM; Kd [5, 27]: 20 ± 4.9 nM; Kd [6, 26]: 16.6 ± 2.4 nM; Kd [6, 27]: 39 ± 5.1 nM; cZ/tZ KD ratio [2]: 17.0; cZ/tZ KD ratio [3]: 1.89; Kd [3, 26]: 34.2 ± 9.3 nM; Kd [3, 27]: 48.6 ± 9.7 nM; cZ/tZ KD ratio (affinity for tZ exceeds that for cZ) [7]: 376 folds; cZ/tZ KD ratio [4]: 55.4
c1ccc(CNc2ncnc3nc[nH]c23)cc1 [BA, benzyladenine] | 13.9 ± 0.1 nM | 12.8 ± 3 nM | 13.5 ± 1.6 nM | 12.3 ± 3.9 nM | 10.7 ± 0.5 nM | 14.9 ± 1.2 nM |  | 61.9 ± 1.3 nM | 38.4 ± 2.6 nM |  |  |  |  |  | 6.91 ± 0.34 nM | 3.2 ± 0.8 nM | 2.28 ± 0.7 nM | 2.9 ± 0.4 nM | 
CC(C)=CCNc1ncnc2nc[nH]c12 [iP, isopentenyladenine] |  | 1.2 ± 0.3 nM | 2.2 ± 0.08 nM |  |  | 0.9 nM |  | 3.6 ± 0.17 nM | 3 ± 0.7 nM |  |  |  |  |  | 1.6 ± 0.13 nM | 0.8 ± 0.2 nM | 1.7 ± 0.16 nM | 2.5 ± 0.8 nM | Kd [8]: 1.45 nM; Kd [9]: 1.59 nM; Kd [10]: 1.56 nM; Kd [11]: 3.89 nM; Kd [12]: 2.03 nM; binding of labeled iP [13]: did not recognize; binding of labeled iP [14]: did not recognize; Kd [15]: 1.75 nM
C/C(=C\CNc1ncnc2[nH]cnc12)CO [tZ, trans-zeatin] | 36.9 ± 2 nM | 24.8 ± 2.9 nM |  |  | 18.1 ± 1.5 nM | 12.4 ± 1.5 nM |  |  |  | 1.05 ± 0.09 nM | 1.3 ± 0.4 nM | 7.21 | 7.57 ± 0.37 nM | 5.9 ± 1 nM |  |  |  |  | PpCHK1/CHK2 affinity ratio (KD1/KD2) ([1]; microsomes): 2.04; binding of labeled tZ [16]: lacks the ability to bind
O=C(Nc1ccccc1)Nc1cnns1 [TD, thidiazuron] | 23.8 ± 5.4 nM |  | 64.5 ± 6.4 nM | 244 ± 94.8 nM | 13 ± 0.2 nM | 11.9 ± 2.8 nM | 0.1 | 6.7 ± 0.21 nM | 3.8 ± 0.6 nM |  |  |  |  |  |  |  |  |  | PpCHK1/CHK2 affinity ratio (KD1/KD2) ([1]; KD for PpCHK1 divided by KD for PpCHK2, Table 1 values): 1.83
